# Measured values published in patent US8653263B2 (Janssen Pharmaceutica, priority 2009, dated 2014).
# Biological target: human orexin-2 receptor (Homo sapiens (Human), UniProt O43614)
# Experiment: Human orexin 2 receptor radioligand binding ([3H]-EMPA competition)
# Details: HEK293 cells stably expressing human orexin-2 receptor; [3H]-EMPA 5 nM final; apparent Ki=IC50/(1+C/Kd), Kd=2 nM; read-out: OR 2 Ki
# Sequence of human orexin-2 receptor (O43614 whole entry): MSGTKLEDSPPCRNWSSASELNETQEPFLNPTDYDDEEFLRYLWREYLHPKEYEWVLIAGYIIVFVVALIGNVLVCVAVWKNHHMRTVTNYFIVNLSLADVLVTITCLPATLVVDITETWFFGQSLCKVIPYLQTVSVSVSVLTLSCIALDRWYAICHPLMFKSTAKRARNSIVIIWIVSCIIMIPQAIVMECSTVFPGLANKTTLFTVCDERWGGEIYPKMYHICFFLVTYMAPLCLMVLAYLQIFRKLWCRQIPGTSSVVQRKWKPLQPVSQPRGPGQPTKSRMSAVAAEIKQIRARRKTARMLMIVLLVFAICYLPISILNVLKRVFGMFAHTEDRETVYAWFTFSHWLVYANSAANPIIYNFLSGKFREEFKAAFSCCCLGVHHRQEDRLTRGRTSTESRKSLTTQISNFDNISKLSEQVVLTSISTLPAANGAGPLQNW
row,SMILES,Ki [nM]
1,"CN(C)c1cc(N2CC3CN(C(=O)c4c(F)cccc4-n4nccn4)CC3C2)nc(C(F)(F)F)n1 (stereo not shown) [Example 3, 6-[5-{[2-Fluoro-6-(2H-1,2,3-triazol-2-yl)phenyl]carbonyl}hexahydropyrrolo[3,4-c]pyrrol-2(1H)-yl]-N,N-dimethyl-2-(trifluoromethyl)pyrimidin-4-amine]",42
2,"COc1cc(N2CC3CN(C(=O)c4cc(F)ccc4-n4nccn4)CC3C2)nc(N(C)C)n1 (stereo not shown) [Example 4, 4-[5-{[5-Fluoro-2-(2H-1,2,3-triazol-2-yl)phenyl]carbonyl}hexahydropyrrolo[3,4-c]pyrrol-2(1H)-yl]-6-methoxy-N,N-dimethylpyrimidin-2-amine]",65
3,"COc1cc(N2CC3CN(C(=O)c4ccccc4-n4nccn4)CC3C2)nc(N(C)C)n1 (stereo not shown) [Example 5, 4-Methoxy-N,N-dimethyl-6-[5-{[2-(2H-1,2,3-triazol-2-yl)phenyl]carbonyl}hexahydropyrrolo-[3,4-c]pyrrol-2(1H)-yl]pyrimidin-2-amine]",14
4,"CN(C)c1cc(N2CC3CN(C(=O)c4ccc(F)cc4-n4nccn4)CC3C2)nc(C(F)(F)F)n1 (stereo not shown) [Example 6, 6-[5-{[4-Fluoro-2-(2H-1,2,3-triazol-2-yl)phenyl]carbonyl}hexahydropyrrolo[3,4-c]pyrrol-2(1H)-yl]-N,N-dimethyl-2-(trifluoromethyl)pyrimidin-4-amine]",67
5,"Cc1cc(C)nc(N2CC3CN(C(=O)c4occc4-c4ccccc4)CC3C2)n1 (stereo not shown) [Example 13, 2-(4,6-Dimethylpyrimidin-2-yl)-5-[(3-phenylfuran-2-yl)carbonyl]octahydropyrrolo[3,4-c]pyrrole]",89
6,"Cc1cc(C)nc(N2CC3CN(C(=O)c4ccccc4-c4nnc[nH]4)CC3C2)n1 (stereo not shown) [Example 14, 2-(4,6-Dimethylpyrimidin-2-yl)-5-{[2-(1H-1,2,4-triazol-5-yl)phenyl]carbonyl}octahydro-pyrrolo[3,4-c]pyrrole]",28

# Continued by falling Ki, values first:
row,Ki [nM],SMILES
1,542,"Cc1cc(C)nc(N2CC3CN(C(=O)c4sccc4-n4cccc4)CC3C2)n1 (stereo not shown) [Example 8, 2-(4,6-Dimethylpyrimidin-2-yl)-5-{[3-(1H-pyrrol-1-yl)thiophen-2-yl]carbonyl}octahydro-pyrrolo[3,4-c]pyrrole]"
2,170,"Cc1cc(C)nc(N2CC3CN(C(=O)c4ccnn4-c4ccccc4)CC3C2)n1 (stereo not shown) [Example 10, 2-(4,6-Dimethylpyrimidin-2-yl)-5-[(1-phenyl-1H-pyrazol-5-yl)carbonyl]octahydropyrrolo[3,4-c]pyrrole]"
3,101,"CN(C)c1cc(N2CC3CN(C(=O)c4cc(F)ccc4-n4nccn4)CC3C2)nc(C(F)(F)F)n1 (stereo not shown) [Example 9, 6-[5-{[5-Fluoro-2-(2H-1,2,3-triazol-2-yl)phenyl]carbonyl}hexahydropyrrolo[3,4-c]pyrrol-2(1H)-yl]-N,N-dimethyl-2-(trifluoromethyl)pyrimidin-4-amine]"
4,46,"Cc1cc(C)nc(N2CC3CN(C(=O)c4sccc4-c4ccccc4)CC3C2)n1 (stereo not shown) [Example 12, 2-(4,6-Dimethylpyrimidin-2-yl)-5-[(3-phenylthiophen-2-yl)carbonyl]octahydropyrrolo[3,4-c]pyrrole]"
5,42,"COc1cc(N2CC3CN(C(=O)c4ccc(F)cc4-n4nccn4)CC3C2)nc(N(C)C)n1 (stereo not shown) [Example 7, 4-[5-{[4-Fluoro-2-(2H-1,2,3-triazol-2-yl)phenyl]carbonyl}hexahydropyrrolo[3,4-c]pyrrol-2(1H)-yl]-6-methoxy-N,N-dimethylpyrimidin-2-amine]"
6,37,"COc1cc(N2CC3CN(C(=O)c4c(F)cccc4-n4nccn4)CC3C2)nc(N(C)C)n1 (stereo not shown) [Example 1, 4-[5-{[2-Fluoro-6-(2H-1,2,3-triazol-2-yl)phenyl]carbonyl}hexahydropyrrolo[3,4-c]pyrrol-2(1H)-yl]-6-methoxy-N,N-dimethylpyrimidin-2-amine]"
7,33,"CN(C)c1cc(N2CC3CN(C(=O)c4ccccc4-n4nccn4)CC3C2)nc(C(F)(F)F)n1 (stereo not shown) [Example 2, N,N-Dimethyl-6-[5-{[2-(2H-1,2,3-triazol-2-yl)phenyl]carbonyl}hexahydropyrrolo[3,4-c]pyrrol-2(1H)-yl]-2-(trifluoromethyl)pyrimidin-4-amine]"
